Laboratory results published in patent US11384099B2, “Pyrazolopyridinone compounds” (Janssen Pharmaceutica NV, priority 2017, dated 2022).
Counter-ions that a name gives are not always drawn.

Assays:
[1] = tested on: NIH/3T3 cells transfected with control vector (MOCK); assay: NIH/3T3 mock cell proliferation assay (CTG, counter assay); type: cell-based; details: Mus musculus, NIH3T3; 72-hr incubation, CellTiter Glo; counter assay for general toxicity
Description: NIH/3T3 Mock Cell Proliferation Assay
In day 1, 90 μL of cell suspension (NIH/3T3 cells transfected with the same control vector as in the above two proliferation assays) (total 30,000 cells per well in growth medium (DMEM containing 1% Glutamax, 10% FBS and 1% Pen/Strep)) was seeded in a 96-well plate and then incubated overnight at 37° C. and 5% CO2. In day 2, 10 μL of growth medium containing 10-fold stock solution of testing compound was added into cell cultures (9 dose points with 3× serial dilution, starting with 30 μM, 0.3% DMSO final). After 72-hr incubation at 37° C. and 5% CO2, in day 5 a volume of 50 μL CellTiter Glo (CTG) reagent was added into cell-containing 96-well plate and the plate was incubated at room temperature for 10 minutes before RLUs (relative light unit) were measured on a microplate reader with luminescence detection module. The RLU value was normalized to survival % and concentration-response curve was plotted using Prism to calculate IC50 (M), pIC50 (−log IC50) and HillSlope value.

[2] = target: T1, human FGFR3 wild type enzyme (cytoplasmic domain) (Homo sapiens, UniProt P22607); assay: FGFR3 wild type mobility shift assay (enzymatic assay, Caliper); type: biochemical; details: 75 μM ATP, 50 minutes at 30° C.
T1 construct: human FGFR3 wild type enzyme (cytoplasmic domain, from Cama Biosciences); purchased Carna Biosciences
Description: FGFR3 Wild Type Mobility Shift Assay (Enzymatic Assay)
(§1) In a final reaction volume of 25 μL, 0.04 ng/μL human FGFR3 wild type enzyme (cytoplasmic domain, from Cama Biosciences) was incubated with 75 μM ATP, 1 μM FL-peptide 30 substrate and 250 nL of testing compound (1% DMSO final) in assay buffer (100 mM HEPES pH 7.4, 10 mM MgCl2, 0.003% Brij35, 1 mM DTT). After incubation for 50 minutes at 30° C. the reaction was stopped with 10 μL of 0.5M EDTA pH 8.0, and then L of reaction mixture was transferred to reading plate and measured on Caliper EZ reader II.

[3] = target: T2, human FGFR3 V555M enzyme (cytoplasmic domain carrying V555M mutation) (Homo sapiens, UniProt P22607, V555M); assay: FGFR3 V555M mobility shift assay (enzymatic assay, Caliper); type: biochemical; details: 30 μM ATP, 45 minutes at 30° C.
T2 construct: cytoplasmic domain carrying V555M mutation, from Carna Biosciences; purchased Carna Biosciences
Description: FGFR3 V555M Mobility Shift Assay (Enzymatic Assay)
as §1, with “FGFR3 V555M” for “FGFR3 wild type”, “(cytoplasmic domain carrying V555M mutation,” for “(cytoplasmic domain,”, “from Carna” for “from Cama”, “with 30” for “with 75”, “for 45” for “for 50”

T2 sequence (P22607 397-806 V555M limits assumed): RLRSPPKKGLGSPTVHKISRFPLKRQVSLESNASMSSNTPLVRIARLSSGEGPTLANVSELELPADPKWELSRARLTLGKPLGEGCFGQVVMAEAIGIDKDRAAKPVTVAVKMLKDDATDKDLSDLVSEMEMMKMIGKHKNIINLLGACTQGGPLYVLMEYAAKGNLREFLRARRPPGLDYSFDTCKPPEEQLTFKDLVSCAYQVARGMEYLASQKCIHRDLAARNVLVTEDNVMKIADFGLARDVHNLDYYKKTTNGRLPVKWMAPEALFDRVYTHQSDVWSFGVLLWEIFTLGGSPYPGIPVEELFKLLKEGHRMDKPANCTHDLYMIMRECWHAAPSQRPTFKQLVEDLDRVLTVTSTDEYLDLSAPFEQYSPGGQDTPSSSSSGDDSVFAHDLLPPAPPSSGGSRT
T1 sequence (P22607 397-806 limits assumed): as the sequence (P22607 397-806 V555M limits assumed) above, with M159V counted along it

SMILES | IC50 [1] | IC50 [2] | IC50 [3]
COCCOc1cc2[nH]c(-c3c(NC(c4ncccn4)C(C)C)c4nn(C)cc4[nH]c3=O)nc2cc1OC (single isomer, unassigned) [Compound 36, (S*)-6-(5-methoxy-6-(2-methoxyethoxy)-1H-benzo[d]imidazol-2-yl)-2-methyl-7-((2-methyl-1-(pyrimidin-2-yl)propyl)amino)-2H-pyrazolo[4,3-b]pyridin-5 (4H)-one] | 757 nM | 2.25 nM | 0.503 nM
COc1cnc2nc(-c3c(N[C@@H](C)c4ncccn4)c4nn(C)cc4[nH]c3=O)[nH]c2c1 [Compound 3, (S)-6-(6-methoxy-1H-imidazo[4,5-b]pyridin-2-yl)-2-methyl-7-((1-(pyrimidin-2-yl)-ethyl)amino)-2H-pyrazolo[4,3-b]pyridin-5 (4H)-one] | 776 nM | 1.67 nM | 0.361 nM
CCn1cc2[nH]c(=O)c(-c3nc4ccc(OCCOC)cc4[nH]3)c(N[C@@H](C)c3ncccn3)c2n1 [Compound 54, (S)-2-ethyl-6-(6-(2-methoxyethoxy)-1H-benzo[d]imidazol-2-yl)-7-((1-(pyrimidin-2-yl)-ethyl)amino)-2H-pyrazolo[4,3-b]pyridin-5 (4H)-one] | 689 nM | 1.64 nM | 0.562 nM
COc1cnc2nc(-c3c(NC(c4ncccn4)C(C)C)c4nn(C)cc4[nH]c3=O)[nH]c2c1 (single isomer, unassigned) [Compound 40, (S*)-6-(6-methoxy-1H-imidazo[4,5-b]pyridin-2-yl)-2-methyl-7-((2-methyl-1-(pyrimidin-2-yl)propyl)amino)-2,4-dihydro-5H-pyrazolo[4,3-b]pyridin-5-one] | 1740 nM | 5.93 nM | 0.743 nM
CCn1cc2[nH]c(=O)c(-c3nc4ccc(OC)cc4[nH]3)c(N[C@@H](C)c3ncccn3)c2n1 [Compound 4, (S)-2-ethyl-6-(6-methoxy-1H-benzo[d]imidazol-2-yl)-7-((1-(pyrimidin-2-yl)ethyl)amino)-2H-pyrazolo[4,3-b]pyridin-5 (4H)-one] | 735 nM | 3.36 nM | 0.998 nM
CC(C)[C@H](Nc1c(-c2nc3ncc(N(C)C)cc3[nH]2)c(=O)[nH]c2cn(C)nc12)c1ncccn1 (single isomer, unassigned) [Compound 23, (S*)-6-(6-(dimethylamino)-1H-imidazo[4,5-b]pyridin-2-yl)-2-methyl-7-((2-methyl-1-(pyrimidin-2-yl)propyl)amino)-2H-pyrazolo[4,3-b]pyridin-5 (4H)-one 0.14 formate] | 943 nM | 3.52 nM | 0.401 nM
CCn1cc2[nH]c(=O)c(-c3nc4cc(OC)c(OC)cc4[nH]3)c(N[C@@H](C)c3ncccn3)c2n1 [Compound 6, (S)-6-(5,6-Dimethoxy-1H-benzo[d]imidazol-2-yl)-2-ethyl-7-((1-(pyrimidin-2-yl)ethyl)-amino)-2H-pyrazolo[4,3-b]pyridin-5 (4H)-one] | 800 nM | 1.83 nM | 0.673 nM
COc1cc2nc(-c3c(NC(c4ncccn4)C4CC4)c4nn(C)cc4[nH]c3=O)[nH]c2cc1OC (single isomer, unassigned) [Compound 46, (S*)-7-((cyclopropyl(pyrimidin-2-yl)methyl)amino)-6-(5,6-dimethoxy-1H-benzo[d]-imidazol-2-yl)-2-methyl-2H-pyrazolo[4,3-b]pyridin-5 (4H)-one] | 682 nM | 2.44 nM | 0.566 nM
COCC(Nc1c(-c2nc3ccc(OC)cc3[nH]2)c(=O)[nH]c2cn(C)nc12)c1ncccn1 (single isomer, unassigned) [Compound 12, (S*)-7-((2-methoxy-1-(pyrimidin-2-yl)ethyl)amino)-6-(6-methoxy-1H-benzo[d]imidazol-2-yl)-2-methyl-2H-pyrazolo[4,3-b]pyridin-5 (4H)-one] | 1500 nM | 18 nM | 4.25 nM
CCOc1cc2[nH]c(-c3c(N[C@@H](C)c4ncccn4)c4nn(CC)cc4[nH]c3=O)nc2cc1OC [Compound 8, (S)-6-(6-ethoxy-5-methoxy-1H-benzo[d]imidazol-2-yl)-2-ethyl-7-((1-(pyrimidin-2-yl)-ethyl)amino)-2H-pyrazolo[4,3-b]pyridin-5 (4H)-one] | 766 nM | 1.15 nM | 0.376 nM
CCn1cc2[nH]c(=O)c(-c3nc4c(OC)cccc4[nH]3)c(N[C@@H](C)c3ncccn3)c2n1 [Compound 32, (S)-2-ethyl-6-(4-methoxy-1H-benzo[d]imidazol-2-yl)-7-((1-(pyrimidin-2-yl)ethyl)amino)-2H-pyrazolo[4,3-b]pyridin-5 (4H)-one] | 1490 nM | 5.45 nM | 2.03 nM
COc1cc(OC)c2nc(-c3c(N[C@@H](C)c4ncccn4)c4nn(C)cc4[nH]c3=O)[nH]c2c1 [Compound 29, (S)-6-(4,6-Dimethoxy-1H-benzo[d]imidazol-2-yl)-2-methyl-7-((1-(pyrimidin-2-yl)ethyl)-amino)-2H-pyrazolo[4,3-b]pyridin-5 (4H)-one] | 809 nM | 1.89 nM | 0.517 nM
CCOc1cc2nc(-c3c(N[C@@H](C)c4ncccn4)c4nn(C)cc4[nH]c3=O)[nH]c2cc1OCC [Compound 53, (S)-6-(5,6-diethoxy-1H-benzo[d]imidazol-2-yl)-2-methyl-7-((1-(pyrimidin-2-yl)ethyl)-amino)-2,4-dihydro-5H-pyrazolo[4,3-b]pyridin-5-one] | 535 nM | 0.554 nM | 0.298 nM
CC[C@H](Nc1c(-c2nc3cnc(N(C)C)cc3[nH]2)c(=O)[nH]c2cn(C)nc12)c1ncccn1 [Compound 22, (S)-6-(6-(dimethylamino)-1H-imidazo[4,5-c]pyridin-2-yl)-2-methyl-7-((1-(pyrimidin-2-yl)propyl)amino)-2H-pyrazolo[4,3-b]pyridin-5 (4H)-one] | 1250 nM | 3.62 nM | 0.743 nM
COc1cc2[nH]c(-c3c(NC(c4ncccn4)C(C)C)c4nn(C)cc4[nH]c3=O)nc2cn1 (single isomer, unassigned) [Compound 18, (S*)-6-(6-methoxy-1H-imidazo[4,5-c]pyridin-2-yl)-2-methyl-7-((2-methyl-1-(pyrimidin-2-yl)propyl)amino)-2H-pyrazolo[4,3-b]pyridin-5 (4H)-one] | 3120 nM | 8.51 nM | 1.69 nM
CCC(Nc1c(-c2nc3cc(OC)c(OC)cc3[nH]2)c(=O)[nH]c2cn(CC)nc12)c1ncccn1 (single isomer, unassigned) [Compound 44, (S*)-6-(5,6-dimethoxy-1H-benzo[d]imidazol-2-yl)-2-ethyl-7-((1-(pyrimidin-2-yl)propyl)-amino)-2H-pyrazolo[4,3-b]pyridin-5 (4H)-one] | 2300 nM | 3.1 nM | 1.17 nM
CCn1cc2[nH]c(=O)c(-c3nc4c(F)c(OC)c(OC)cc4[nH]3)c(N[C@@H](C)c3ncccn3)c2n1 [Compound 41, (S)-2-ethyl-6-(4-fluoro-5,6-dimethoxy-1H-benzo[d]imidazol-2-yl)-7-((1-(pyrimidin-2-yl)-ethyl)amino)-2H-pyrazolo[4,3-b]pyridin-5 (4H)-one] | 2280 nM | 3.8 nM | 1.11 nM
COc1cc(F)c2nc(-c3c(N[C@@H](C)c4ncccn4)c4nn(C)cc4[nH]c3=O)[nH]c2c1 [Compound 2, (S)-6-(4-fluoro-6-methoxy-1H-benzo[d]imidazol-2-yl)-2-methyl-7-((1-(pyrimidin-2-yl)-ethyl)amino)-2H-pyrazolo[4,3-b]pyridin-5 (4H)-one] | 2380 nM | 2.88 nM | 0.791 nM
COc1ccc2[nH]c(-c3c(NC(c4ncccn4)C(C)C)c4nn(C)cc4[nH]c3=O)nc2c1 (single isomer, unassigned) [Compound 15, (S*)-6-(5-Methoxy-1H-benzo[d]imidazol-2-yl)-2-methyl-7-((2-methyl-1-(pyrimidin-2-yl)-propyl)amino)-2H-pyrazolo[4,3-b]pyridin-5 (4H)-one] | 1340 nM |  | 
